This is an account of results in ChEMBL document CHEMBL3137667, “[Drug-induced liver injury; fourteenth updated edition of the bibliographic database of liver injuries and related drugs]” (Gastroenterol Clin Biol, 2004).

Data set [1] in a line: Highest frequency of moderate liver toxicity observed during clinical trials, expressed as a percentage. [column '% BIOL' in source]. Conditions: human.
Data set [2] is described as follows: Highest frequency of acute liver toxicity observed during clinical trials, expressed as a percentage. [column '% AIGUE' in source]. Conditions: human.
The conditions of data set [3]: human, serum.
The conditions of data set [4]: human, serum. The source holds these as a separate data set.
The conditions of data set [5]: human.
The conditions of data set [6]: human. This is another data set of the same source.
For data set [7] the following is noted: human. This is another data set of the same source.
For data set [8] the following is noted: human, serum, 4383 h.
For data set [9] the following is noted: human. This is another data set of the same source.
For data set [10] the following is noted: human. The source holds these as a separate data set.
The conditions of data set [11]: human. The source holds these as a separate data set.
For data set [12] the following is noted: human. This is another data set of the same source.
The conditions of data set [13]: human. This is another data set of the same source.
The conditions of data set [14]: human. The source holds these as a separate data set.
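Throughout, for Hepatotoxicity (association with vascular disease): count of indexed literature references reporting vascular liver injury in humans, e.g. peliosis hepatitis, hepatic veno-occlusive disease or Budd-Chiari syndrome.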
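Throughout, for Hepatotoxicity (benign tumour): value is a count of indexed literature references citing a benign tumour confirmed by histopathology.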
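Throughout, for Hepatotoxicity (choleostasis): human cholestatic liver injury, shown by histopathology or by peak ALT or AST elevation over alkaline phosphatase ratio below 2, value counts indexed literature reports.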
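Throughout, for Hepatotoxicity (chronic liver disease): chronic liver injury confirmed by histopathology or persistently raised serum aminotransferase activity beyond 6 months, value given as the count of indexed literature references.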
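Throughout, for Hepatotoxicity (cirrhosis): value is a count of indexed literature references reporting cirrhosis confirmed by histopathology.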
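Throughout, for Hepatotoxicity (cytolytic): human cytolytic liver injury, shown by histopathology or by a ratio above 5 of peak ALT or AST elevation to alkaline phosphatase elevation, value counts indexed references.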
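Throughout, for Hepatotoxicity (granulomatous hepatitis): value is a count of indexed literature references reporting granulomatous liver disease confirmed by histopathology.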
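Throughout, for Hepatotoxicity (malignant tumour): malignant tumour confirmed by histopathology, value gives the count of indexed literature references reporting it.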
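Throughout, for Hepatotoxicity (severe hepatitis): human clinical data: severe hepatitis, meaning potentially life-threatening liver failure or clinically observed cases, the value counts how many indexed literature references report it.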
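Throughout, for Hepatotoxicity (steatosis): steatosis confirmed by histopathology, value is the count of indexed references.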

EPOETIN ALFA: the “Hepatotoxicity (moderate)” value in [1] was 20%; in data set [3], 4. In addition, the “Hepatotoxicity (acute)” value came out at 0% in [2] and 0 in data set [4]. Besides, the “Hepatotoxicity (cytolytic)” value in [5] was found to be 0. Besides, the “Hepatotoxicity (choleostasis)” value in [6] came out at 0. Besides, the “Hepatotoxicity (severe hepatitis)” value in [7] is recorded as 0. Besides, the “Hepatotoxicity (chronic liver disease)” value in data set [8] worked out at 0. Further, in data set [9], the “Hepatotoxicity (cirrhosis)” value came to 0. Besides, the “Hepatotoxicity (granulomatous hepatitis)” value in data set [10] came to 0. Also, the “Hepatotoxicity (association with vascular disease)” value in data set [11] is 0. Moreover, the “Hepatotoxicity (steatosis)” value in data set [12] came to 0. The “Hepatotoxicity (malignant tumour)” value in data set [13] stood at 0. For the same compound, the “Hepatotoxicity (benign tumour)” value in [14] is given as 0.

Take `CCN1C(=O)NC(c2ccccc2)C1=O` (stereo not drawn) [ETHOTOIN]: the entries for the “Hepatotoxicity (moderate)” value in data set [1] and in data set [3] were 2% and 1, respectively. The results for the “Hepatotoxicity (acute)” value in [2] and in data set [4] were 0% and 0, respectively. The “Hepatotoxicity (cytolytic)” value in data set [5] is listed as 0. For the same compound, the “Hepatotoxicity (choleostasis)” value in [6] is 0. In data set [7], the “Hepatotoxicity (severe hepatitis)” value was 0. The “Hepatotoxicity (chronic liver disease)” value in data set [8] is given as 0. Besides, the “Hepatotoxicity (cirrhosis)” value in data set [9] was determined as 0. The “Hepatotoxicity (granulomatous hepatitis)” value in [10] worked out at 0. Besides, the “Hepatotoxicity (association with vascular disease)” value in data set [11] is given as 0. Also, the “Hepatotoxicity (steatosis)” value in data set [12] was determined as 0. In data set [13], the “Hepatotoxicity (malignant tumour)” value came out at 0. The “Hepatotoxicity (benign tumour)” value in data set [14] is given as 0.

As to `Cc1cc(NS(=O)(=O)c2ccc(N)cc2)nc(C)n1` [SULFISOMIDINE], the “Hepatotoxicity (moderate)” value in data set [1] is 0%; in data set [3], 0. In addition, the “Hepatotoxicity (acute)” value in [2] is reported as 0%; in data set [4], 1. Moreover, the “Hepatotoxicity (cytolytic)” value in data set [5] was determined as 0. The “Hepatotoxicity (choleostasis)” value in data set [6] stood at 0. In data set [7], the “Hepatotoxicity (severe hepatitis)” value worked out at 0. Further, in data set [8], the “Hepatotoxicity (chronic liver disease)” value came to 0. For the same compound, the “Hepatotoxicity (cirrhosis)” value in data set [9] is listed as 0. Moreover, the “Hepatotoxicity (granulomatous hepatitis)” value in data set [10] is 0. For the same compound, the “Hepatotoxicity (association with vascular disease)” value in [11] was determined as 0. Besides, in data set [12], the “Hepatotoxicity (steatosis)” value is given as 0. Besides, in data set [13], the “Hepatotoxicity (malignant tumour)” value was determined as 0. Besides, the “Hepatotoxicity (benign tumour)” value in data set [14] was 0.

For `CCOC(=O)[C@H](CCc1ccccc1)N[C@@H](C)C(=O)N1Cc2ccccc2C[C@H]1C(=O)O`, the figures for the “Hepatotoxicity (moderate)” value in data set [1] and in data set [3] were 10% and 3, respectively. The results for the “Hepatotoxicity (acute)” value in data set [2] and in [4] were 0% and 1, respectively. Further, the “Hepatotoxicity (cytolytic)” value in [5] was determined as 0. For the same compound, the “Hepatotoxicity (choleostasis)” value in [6] is given as 0. Besides, in [7], the “Hepatotoxicity (severe hepatitis)” value stood at 0. Also, in [8], the “Hepatotoxicity (chronic liver disease)” value came out at 0. Further, the “Hepatotoxicity (cirrhosis)” value in data set [9] worked out at 0. The “Hepatotoxicity (granulomatous hepatitis)” value in data set [10] is 0. Besides, the “Hepatotoxicity (association with vascular disease)” value in [11] came out at 0. Further, the “Hepatotoxicity (steatosis)” value in data set [12] is on record as 0. Besides, the “Hepatotoxicity (malignant tumour)” value in data set [13] worked out at 0. Moreover, in data set [14], the “Hepatotoxicity (benign tumour)” value was 0.

`COCc1c(C(=O)OC(C)C)ncc2[nH]c3ccc(OCc4ccccc4)cc3c12` [ABECARNIL]: the entries for the “Hepatotoxicity (moderate)” value in data set [1] and in data set [3] were 8% and 1, respectively. Further, the “Hepatotoxicity (acute)” value in [2] was determined as 0%; in [4], 0. The “Hepatotoxicity (cytolytic)” value in [5] is listed as 0. Also, the “Hepatotoxicity (choleostasis)” value in data set [6] worked out at 0. In addition, in data set [7], the “Hepatotoxicity (severe hepatitis)” value turned out to be 0. The “Hepatotoxicity (chronic liver disease)” value in data set [8] was 0. The “Hepatotoxicity (cirrhosis)” value in [9] is 0. Besides, the “Hepatotoxicity (granulomatous hepatitis)” value in data set [10] is 0. Further, in data set [11], the “Hepatotoxicity (association with vascular disease)” value is on record as 0. Further, in data set [12], the “Hepatotoxicity (steatosis)” value is reported as 0. Besides, the “Hepatotoxicity (malignant tumour)” value in data set [13] was found to be 0. The “Hepatotoxicity (benign tumour)” value in [14] is 0.

Take `C[C@@H](O)[C@H]1C(=O)N2C(C(=O)[O-])=C(SC3Cn4cnc[n+]4C3)[C@H](C)[C@H]12` (stereo partly drawn) [BIAPENEM]: the “Hepatotoxicity (moderate)” value in data set [1] is listed as 40%; in data set [3], 56. In addition, the “Hepatotoxicity (acute)” value in data set [2] came out at 0%; in data set [4], 0. Besides, the “Hepatotoxicity (cytolytic)” value in data set [5] came to 0. Also, the “Hepatotoxicity (choleostasis)” value in [6] is given as 0. In addition, in [7], the “Hepatotoxicity (severe hepatitis)” value is recorded as 0. Besides, the “Hepatotoxicity (chronic liver disease)” value in data set [8] is 0. Further, the “Hepatotoxicity (cirrhosis)” value in data set [9] was found to be 0. Also, in data set [10], the “Hepatotoxicity (granulomatous hepatitis)” value is 0. Moreover, in data set [11], the “Hepatotoxicity (association with vascular disease)” value came to 0. In addition, the “Hepatotoxicity (steatosis)” value in [12] is listed as 0. Moreover, in data set [13], the “Hepatotoxicity (malignant tumour)” value came out at 0. Further, in data set [14], the “Hepatotoxicity (benign tumour)” value came out at 0.

On to `N[C@H](C(=O)O)[C@@H]1CC(Cl)=NO1` [ACIVICIN], for which the “Hepatotoxicity (moderate)” value was 62% in data set [1] and 3 in data set [3]. Also, the “Hepatotoxicity (acute)” value turned out to be 0% in [2] and 0 in data set [4]. Besides, the “Hepatotoxicity (cytolytic)” value in data set [5] is 0. Moreover, the “Hepatotoxicity (choleostasis)” value in data set [6] is listed as 0. Moreover, the “Hepatotoxicity (severe hepatitis)” value in [7] is listed as 0. The “Hepatotoxicity (chronic liver disease)” value in data set [8] was found to be 0. The “Hepatotoxicity (cirrhosis)” value in data set [9] is reported as 0. Also, the “Hepatotoxicity (granulomatous hepatitis)” value in [10] was 0. Besides, the “Hepatotoxicity (association with vascular disease)” value in data set [11] was 0. Also, the “Hepatotoxicity (steatosis)” value in [12] is on record as 0. Further, in data set [13], the “Hepatotoxicity (malignant tumour)” value amounted to 0. The “Hepatotoxicity (benign tumour)” value in data set [14] stood at 0.

As for `NS(=O)(=O)c1cc2c(cc1C(F)(F)F)NC(Cc1ccccc1)NS2(=O)=O` (stereo not drawn) [BENDROFLUMETHIAZIDE], the “Hepatotoxicity (moderate)” value is on record as 0% in [1] and 0 in data set [3]. For the same compound, the entries for the “Hepatotoxicity (acute)” value in [2] and in data set [4] were 0% and 1, respectively. The “Hepatotoxicity (cytolytic)” value in data set [5] came out at 0. Moreover, the “Hepatotoxicity (choleostasis)” value in [6] was determined as 0. Further, the “Hepatotoxicity (severe hepatitis)” value in [7] was 0. Moreover, the “Hepatotoxicity (chronic liver disease)” value in [8] came out at 0. The “Hepatotoxicity (cirrhosis)” value in data set [9] is on record as 0. Moreover, the “Hepatotoxicity (granulomatous hepatitis)” value in [10] amounted to 0. Besides, the “Hepatotoxicity (association with vascular disease)” value in [11] amounted to 0. In addition, the “Hepatotoxicity (steatosis)” value in data set [12] is on record as 0. For the same compound, in [13], the “Hepatotoxicity (malignant tumour)” value worked out at 0. In [14], the “Hepatotoxicity (benign tumour)” value is on record as 0.

As for `CCCCN(CCCC)CCC(O)c1cc2c(Cl)cc(Cl)cc2c2cc(C(F)(F)F)ccc12` (stereo not drawn) [HALOFANTRINE], the “Hepatotoxicity (moderate)” value in data set [1] was found to be 29%; in data set [3] it was 8. For the same compound, the “Hepatotoxicity (acute)” value in data set [2] worked out at 0%; in data set [4], 0. Further, the “Hepatotoxicity (cytolytic)” value in data set [5] is reported as 0. Besides, the “Hepatotoxicity (choleostasis)” value in data set [6] is recorded as 0. In addition, the “Hepatotoxicity (severe hepatitis)” value in data set [7] is recorded as 0. Besides, the “Hepatotoxicity (chronic liver disease)” value in data set [8] stood at 0. Moreover, the “Hepatotoxicity (cirrhosis)” value in data set [9] amounted to 0. Moreover, the “Hepatotoxicity (granulomatous hepatitis)” value in data set [10] is listed as 0. For the same compound, in data set [11], the “Hepatotoxicity (association with vascular disease)” value amounted to 0. Further, the “Hepatotoxicity (steatosis)” value in data set [12] is recorded as 0. Further, the “Hepatotoxicity (malignant tumour)” value in [13] is 0. For the same compound, the “Hepatotoxicity (benign tumour)” value in data set [14] worked out at 0.

For the compound `CC/C(=C(/c1ccc(OCCN(C)C)cc1)c1cccc(O)c1)c1ccccc1` [DROLOXIFENE], the entries for the “Hepatotoxicity (moderate)” value in data set [1] and in data set [3] were 6.6% and 4, respectively. Besides, the “Hepatotoxicity (acute)” value in [2] worked out at 0%; in data set [4], 0. In addition, in data set [5], the “Hepatotoxicity (cytolytic)” value is listed as 0. Moreover, in data set [6], the “Hepatotoxicity (choleostasis)” value stood at 0. Besides, in [7], the “Hepatotoxicity (severe hepatitis)” value was 0. In addition, the “Hepatotoxicity (chronic liver disease)” value in data set [8] amounted to 0. The “Hepatotoxicity (cirrhosis)” value in data set [9] amounted to 0. The “Hepatotoxicity (granulomatous hepatitis)” value in [10] was 0. Moreover, the “Hepatotoxicity (association with vascular disease)” value in [11] worked out at 0. The “Hepatotoxicity (steatosis)” value in data set [12] turned out to be 0. The “Hepatotoxicity (malignant tumour)” value in data set [13] was determined as 0. The “Hepatotoxicity (benign tumour)” value in data set [14] came out at 0.

Take `Nc1nc2c(ncn2COCCO)c(=O)[nH]1` [ACYCLOVIR]: the “Hepatotoxicity (moderate)” value is listed as 50% in data set [1] (Liver) and 18 in data set [3]. Moreover, the “Hepatotoxicity (acute)” value in data set [2] (Liver) is 1.9%; in data set [4], 1. For the same compound, in [5], the “Hepatotoxicity (cytolytic)” value was 1. Further, in data set [6], the “Hepatotoxicity (choleostasis)” value is on record as 0. Further, the “Hepatotoxicity (severe hepatitis)” value in data set [7] (Liver) was 0. The “Hepatotoxicity (chronic liver disease)” value in [8] came to 0. For the same compound, the “Hepatotoxicity (cirrhosis)” value in data set [9] was found to be 0. The “Hepatotoxicity (granulomatous hepatitis)” value in [10] is recorded as 0. The “Hepatotoxicity (association with vascular disease)” value in [11] stood at 0. The “Hepatotoxicity (steatosis)” value in data set [12] is listed as 0. The “Hepatotoxicity (malignant tumour)” value in data set [13] worked out at 0. Moreover, in [14], the “Hepatotoxicity (benign tumour)” value is 0.

On to `CCCCCN(C)CCC(O)(P(=O)(O)O)P(=O)(O)O` [IBANDRONIC ACID], for which the entries for the “Hepatotoxicity (moderate)” value in data set [1] and in [3] were 0.6% and 1, respectively. For the same compound, the entries for the “Hepatotoxicity (acute)” value in [2] and in [4] were 0% and 0, respectively. Besides, the “Hepatotoxicity (cytolytic)” value in [5] is given as 0. The “Hepatotoxicity (choleostasis)” value in data set [6] is given as 0. Besides, in [7], the “Hepatotoxicity (severe hepatitis)” value is given as 0. In addition, the “Hepatotoxicity (chronic liver disease)” value in [8] came out at 0. Moreover, in data set [9], the “Hepatotoxicity (cirrhosis)” value is given as 0. For the same compound, the “Hepatotoxicity (granulomatous hepatitis)” value in [10] was determined as 0. Also, the “Hepatotoxicity (association with vascular disease)” value in data set [11] was 0. Also, the “Hepatotoxicity (steatosis)” value in [12] is on record as 0. In addition, in [13], the “Hepatotoxicity (malignant tumour)” value was 0. Besides, the “Hepatotoxicity (benign tumour)” value in [14] is on record as 0.
